Measured values published in ChEMBL document CHEMBL1137559, “Rational design of 5'-thiourea-substituted alpha-thymidine analogues as thymidine monophosphate kinase inhibitors capable of inhibiting mycobacterial growth” (J Med Chem, 2007).
Activity calls are given as the source filed them. No cut-off for these calls is given here.

Tests used:
Homo sapiens [1] = organism: Homo sapiens; experiment: Inhibition of human TMPK expressed in Escherichia coli at 1 mM by spectrophotometric assay
Homo sapiens [2] = organism: Homo sapiens; experiment: Inhibition of human TMPK expressed in Escherichia coli by spectrophotometric assay

| SMILES | Activity (Homo sapiens [1]) | Km (Homo sapiens [2]) [µM] |
| --- | --- | --- |
| Cc1cn([C@@H]2C[C@@H](CNC(=O)NC[C@H]3C[C@H](n4cc(C)c(=O)[nH]c4=O)O[C@@H]3CO)[C@H](CO)O2)c(=O)[nH]c1=O | inactive | – |
| Cc1cn([C@H]2C[C@H](O)[C@@H](COP(=O)(O)O)O2)c(=O)[nH]c1=O | – | 5 |
